In article PMC10999543, “Identification of kinase modulators as host-directed therapeutics against intracellular methicillin-resistant Staphylococcus aureus” (Frontiers in Cellular and Infection Microbiology, 2024):
Like-named read-outs stand apart in the source and are kept apart here.

Experiments:
intracellular MRSA = assay type: cell-based, Staphylococcus aureus; details: for z-scoreMRSA+ mean: mean of 3 replicates; for z-scoreMRSA+ rep 1 / %GFP+ rep 1: replicate 1; for z-scoreMRSA+ rep 2 / %GFP+ rep 2: replicate 2; for z-scoreMRSA+ rep 3 / %GFP+ rep 3: replicate 3; as to %GFP+ rep 1: test concentration or dose not given here; as to %GFP+ rep 2: test concentration or dose not given here; as to %GFP+ rep 3: test concentration or dose not given here; as to effect: test concentration or dose not given here; as to z-scoreMRSA+ mean: test concentration or dose not given here; as to z-scoreMRSA+ rep 1: test concentration or dose not given here; as to z-scoreMRSA+ rep 2: test concentration or dose not given here; as to z-scoreMRSA+ rep 3: test concentration or dose not given here
Procedure, shortened: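 Values are z-scores: GFP-positive HeLa percentage and event count per well against plate statistics, minus the mean DMSO z-score. Wells deviating two-fold from controls were left out of plate means. Infection was at a mean MOI of 6.8, with an overnight compound exposure.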

HeLa cells = assay: Compound screen by flow cytometry: HeLa cell count as surrogate readout of cell viability (z-scoreHeLa); assay type: cell-based, human; also: test concentration or dose not given here
Procedure, shortened: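 The viability surrogate was the count of fixed HeLa cells by flow cytometry, converted to z-scores against DMSO controls with values deviating two-fold excluded. Before counting, cells had been infected with MRSA for 1 h and cleared of extracellular bacteria with gentamicin. They were then exposed overnight to kinase inhibitors in triplicate.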

[1] = PKIS compound screen, Yes/No call
[2] = PKIS compound screen, Yes/No call (effect without cell death)
[3] = PKIS compounds raw data, MRSA-infected HeLa cells
[4] = PKIS compound screen, mean of 3 replicates
[5] = PKIS compound screen, replicate 1
[6] = PKIS compound screen, replicate 2
[7] = PKIS compound screen, replicate 3
[8] = PKIS compounds raw data, replicate 1, HeLa cell count
[9] = PKIS compounds raw data, replicate 2, HeLa cell count
[10] = PKIS compounds raw data, replicate 3, HeLa cell count
[11] = PKIS compound screen raw data, MRSA-infected HeLa cells
[12] = PKIS compound screen, MRSA-infected HeLa cells
[13] = PKIS compound screen, Yes/No call on z-scoreMRSA+
[14] = PKIS compound screen raw data, HeLa cell count, replicate 1
[15] = PKIS compound screen raw data, HeLa cell count, replicate 2
[16] = PKIS compound screen raw data, HeLa cell count, replicate 3
[17] = PKIS compound screen, HeLa cell count, mean of 3 replicates
[18] = PKIS compound screen, HeLa cell count, replicate 1
[19] = PKIS compound screen, HeLa cell count, replicate 2
[20] = PKIS compound screen, HeLa cell count, replicate 3
[21] = PKIS compound screen, Yes/No call on z-scoreHeLa
[22] = Yes/No: effect without cell death
[23] = compound screen, MRSA-infected HeLa cells
[24] = compound screen, HeLa cell count, mean of 3 replicates
[25] = compound screen, HeLa cell count, replicate 1
[26] = compound screen, HeLa cell count, replicate 2
[27] = compound screen, HeLa cell count, replicate 3

Row | Structure (SMILES) | effect (intracellular MRSA; [1]) | hit (intracellular MRSA; [2]) | z-scoreMRSA+ mean (intracellular MRSA; PKIS compound screen) | z-scoreMRSA+ rep 1 (intracellular MRSA; PKIS compound screen) | z-scoreMRSA+ rep 2 (intracellular MRSA; PKIS compound screen) | z-scoreMRSA+ rep 3 (intracellular MRSA; PKIS compound screen) | %GFP+ rep 1 (intracellular MRSA; [3]) [%] | %GFP+ rep 2 (intracellular MRSA; [3]) [%] | %GFP+ rep 3 (intracellular MRSA; [3]) [%] | cell death (HeLa cells; [1]) | z-scoreHeLa mean (HeLa cells; [4]) | z-scoreHeLa rep 1 (HeLa cells; [5]) | z-scoreHeLa rep 2 (HeLa cells; [6]) | z-scoreHeLa rep 3 (HeLa cells; [7]) | cell count rep 1 (HeLa cells; [8]) | cell count rep 2 (HeLa cells; [9]) | cell count rep 3 (HeLa cells; [10]) | %GFP+ rep 1 (intracellular MRSA; [11]) [%] | %GFP+ rep 2 (intracellular MRSA; [11]) [%] | %GFP+ rep 3 (intracellular MRSA; [11]) [%] | also measured
1 | Cc1cccc(-c2nc(Nc3ccc4ncsc4c3)c3ccccc3n2)n1 [GW867588X] | No | No | 0.0377 | -0.25 | 0.22 | 0.14 | 25.8 | 27.2 | 28.0 | No | 1.67 | 1.09 | 1.64 | 2.28 | 7867 | 8486 | 9199 | – | – | – | –
2 | COc1cc(Nc2ncc3c(C)nc(-c4cc5ccccc5[nH]4)n3n2)cc(OC)c1OC [GW869516X] | No | No | -0.71 | -0.87 | -0.43 | -0.83 | 22.6 | 23.8 | 22.8 | No | 1.43 | 1.29 | 1.41 | 1.60 | 8188 | 8134 | 8115 | – | – | – | –
3 | Cc1nc(-c2ccccc2)n2nc(NCCCN3CCOCC3)ncc12 [GW874091X] | No | No | 0.31 | 0.36 | 0.54 | 0.0338 | 14.3 | 15.1 | 16.0 | No | -0.73 | -1.54 | -0.37 | -0.27 | 3071 | 3785 | 6390 | – | – | – | –
4 | Cc1cccc(-c2nc(Nc3cccc(C(N)=O)c3)c3ccccc3n2)n1 [GW876019X] | No | No | 0.49 | 0.42 | 0.20 | 0.84 | 29.2 | 27.1 | 31.8 | No | -1.99 | -2.12 | -2.54 | -1.32 | 2511 | 2183 | 3514 | 11.7 | 12.9 | 16.0 | z-scoreMRSA+ mean (intracellular MRSA; [12]): -1.70; z-scoreMRSA+ rep 1 (intracellular MRSA; [12]): -1.89; z-scoreMRSA+ rep 2 (intracellular MRSA; [12]): -1.78; z-scoreMRSA+ rep 3 (intracellular MRSA; [12]): -1.43; effect (intracellular MRSA; [13]): No; cell count rep 1 (HeLa cells; [14]): 25839; cell count rep 2 (HeLa cells; [15]): 10617; cell count rep 3 (HeLa cells; [16]): 8442; z-scoreHeLa mean (HeLa cells; [17]): -1.76; z-scoreHeLa rep 1 (HeLa cells; [18]): -0.74; z-scoreHeLa rep 2 (HeLa cells; [19]): -2.51; z-scoreHeLa rep 3 (HeLa cells; [20]): -2.04; cell death (HeLa cells; [21]): No
5 | Cc1cccc(-c2nc(Nc3ccc4c(cnn4C)c3)c3ccccc3n2)n1 [GW876731X] | – | – | – | – | – | – | – | – | – | – | – | – | – | – | – | – | – | 19.5 | 19.1 | 19.8 | effect (intracellular MRSA; Yes/No call from z-scoreMRSA+): No; hit (intracellular MRSA; [22]): No; z-scoreMRSA+ mean (intracellular MRSA; [23]): -0.09; z-scoreMRSA+ rep 1 (intracellular MRSA; [23]): 0.19; z-scoreMRSA+ rep 2 (intracellular MRSA; [23]): -0.0842; z-scoreMRSA+ rep 3 (intracellular MRSA; [23]): -0.39; cell count rep 1 (HeLa cells; [14]): 29057; cell count rep 2 (HeLa cells; [15]): 27157; cell count rep 3 (HeLa cells; [16]): 25742; cell death (HeLa cells; Yes/No call from z-scoreHeLa): No; z-scoreHeLa mean (HeLa cells; [24]): 0.49; z-scoreHeLa rep 1 (HeLa cells; [25]): -0.19; z-scoreHeLa rep 2 (HeLa cells; [26]): 0.32; z-scoreHeLa rep 3 (HeLa cells; [27]): 1.33
6 | CN1CCC(n2cnc(-c3ccc(F)cc3)c2-c2ccnc(Nc3ccccc3)n2)CC1 [SB-236687] | – | Yes | – | – | – | – | – | – | – | – | – | – | – | – | – | – | – | 10.0 | 12.2 | 12.7 | z-scoreMRSA+ mean (intracellular MRSA; [12]): -2.18; z-scoreMRSA+ rep 1 (intracellular MRSA; [12]): -2.49; z-scoreMRSA+ rep 2 (intracellular MRSA; [12]): -1.90; z-scoreMRSA+ rep 3 (intracellular MRSA; [12]): -2.16; effect (intracellular MRSA; [13]): Yes; cell count rep 1 (HeLa cells; [14]): 21592; cell count rep 2 (HeLa cells; [15]): 24622; cell count rep 3 (HeLa cells; [16]): 40771; z-scoreHeLa mean (HeLa cells; [17]): -0.54; z-scoreHeLa rep 1 (HeLa cells; [18]): 0.22; z-scoreHeLa rep 2 (HeLa cells; [19]): -1.90; z-scoreHeLa rep 3 (HeLa cells; [20]): 0.04; cell death (HeLa cells; [21]): No
7 | Cl.Cl.Cl.Fc1ccc(-c2ncn(C3CCNCC3)c2-c2ccnc(Nc3ccccc3)n2)cc1 [SB-238039-R] | – | – | – | – | – | – | 7.4 | 6.7 | 6.5 | – | – | – | – | – | 1720 | 1088 | 3178 | – | – | – | effect (intracellular MRSA; Yes/No call from z-scoreMRSA+): Yes; hit (intracellular MRSA; [22]): Yes; z-scoreMRSA+ mean (intracellular MRSA; [23]): -2.31; z-scoreMRSA+ rep 1 (intracellular MRSA; [23]): -1.86; z-scoreMRSA+ rep 2 (intracellular MRSA; [23]): -2.29; z-scoreMRSA+ rep 3 (intracellular MRSA; [23]): -2.78; cell death (HeLa cells; Yes/No call from z-scoreHeLa): No; z-scoreHeLa mean (HeLa cells; [24]): -2.33; z-scoreHeLa rep 1 (HeLa cells; [25]): -2.76; z-scoreHeLa rep 2 (HeLa cells; [26]): -2.40; z-scoreHeLa rep 3 (HeLa cells; [27]): -1.81
8 | Fc1ccc(-c2ncn(C3CCNCC3)c2-c2ccnc(Oc3ccc(F)c(F)c3)n2)cc1 [SB-253228] | – | No | – | – | – | – | – | – | – | – | – | – | – | – | – | – | – | 13.5 | 14.9 | 15.9 | z-scoreMRSA+ mean (intracellular MRSA; [12]): -1.22; z-scoreMRSA+ rep 1 (intracellular MRSA; [12]): -1.38; z-scoreMRSA+ rep 2 (intracellular MRSA; [12]): -1.09; z-scoreMRSA+ rep 3 (intracellular MRSA; [12]): -1.18; effect (intracellular MRSA; [13]): No; cell count rep 1 (HeLa cells; [14]): 9973; cell count rep 2 (HeLa cells; [15]): 28239; cell count rep 3 (HeLa cells; [16]): 36229; z-scoreHeLa mean (HeLa cells; [17]): -1.15; z-scoreHeLa rep 1 (HeLa cells; [18]): -1.54; z-scoreHeLa rep 2 (HeLa cells; [19]): -1.22; z-scoreHeLa rep 3 (HeLa cells; [20]): -0.68; cell death (HeLa cells; [21]): No
9 | CN1C(=O)C(Nc2ccccc2)=C(c2ccccc2)C1=O [SB-300079] | No | No | -0.64 | -0.99 | -0.37 | -0.55 | 22.0 | 24.1 | 24.3 | No | 0.41 | -0.31 | 0.70 | 0.83 | 5536 | 7057 | 6914 | – | – | – | –
10 | COc1cccc(C2=C(Nc3ccc(Cl)c(C(=O)O)c3)C(=O)NC2=O)c1 [SB-390769] | No | No | 0.47 | -0.05 | 0.72 | 0.73 | 26.8 | 29.8 | 31.2 | No | 1.73 | 0.80 | 1.87 | 2.53 | 7373 | 8825 | 9583 | – | – | – | –
11 | CCN(CC)CCOc1ccc(Nc2ncc3cc(-c4c(Cl)cccc4Cl)c(=O)n(C)c3n2)cc1 [SB-601273] | – | – | – | – | – | – | – | – | – | – | – | – | – | – | – | – | – | 32.3 | 28.1 | 25.0 | effect (intracellular MRSA; Yes/No call from z-scoreMRSA+): No; hit (intracellular MRSA; [22]): No; z-scoreMRSA+ mean (intracellular MRSA; [23]): 1.27; z-scoreMRSA+ rep 1 (intracellular MRSA; [23]): 1.64; z-scoreMRSA+ rep 2 (intracellular MRSA; [23]): 1.33; z-scoreMRSA+ rep 3 (intracellular MRSA; [23]): 0.84; cell death (HeLa cells): No; cell count rep 1 (HeLa cells; human): 895; cell count rep 2 (HeLa cells; human): 949; cell count rep 3 (HeLa cells; human): 1208; z-scoreHeLa mean (HeLa cells; human): -2.54; z-scoreHeLa rep 1 (HeLa cells; human): -2.49; z-scoreHeLa rep 2 (HeLa cells; human): -2.58; z-scoreHeLa rep 3 (HeLa cells; human): -2.55
12 | CN(C)CCOc1ccc(-c2cc(-c3ccc(Cl)c(O)c3)c(-c3ccncc3)[nH]2)cc1.Cl.Cl [SB-684387-B] | – | – | – | – | – | – | – | – | – | – | – | – | – | – | – | – | – | 13.0 | 10.9 | 11.1 | effect (intracellular MRSA; Yes/No call from z-scoreMRSA+): Yes; hit (intracellular MRSA; [22]): Yes; z-scoreMRSA+ mean (intracellular MRSA; [23]): -3.01; z-scoreMRSA+ rep 1 (intracellular MRSA; [23]): -2.86; z-scoreMRSA+ rep 2 (intracellular MRSA; [23]): -2.84; z-scoreMRSA+ rep 3 (intracellular MRSA; [23]): -3.32; cell count rep 1 (HeLa cells; [14]): 7005; cell count rep 2 (HeLa cells; [15]): 6368; cell count rep 3 (HeLa cells; [16]): 7752; cell death (HeLa cells; Yes/No call from z-scoreHeLa): No; z-scoreHeLa mean (HeLa cells; [24]): 1.70; z-scoreHeLa rep 1 (HeLa cells; [25]): 1.91; z-scoreHeLa rep 2 (HeLa cells; [26]): 1.59; z-scoreHeLa rep 3 (HeLa cells; [27]): 1.59
